{"source": "paper PMC6189639", "about": "(Biochemistry, 2018)", "assay_in_all_cases": "X-ray crystal structure of complex, […] A", "format_in_all_cases": "binding", "key": {"tmMBP3": {"target": "tmMBP3 (Thermotoga maritima, UniProt G4FGN8)", "details": "co-crystal, 0.4 M sodium thiocyanate; substrate site S1-S2"}, "tmMBP1": {"target": "tmMBP1 (Thermotoga maritima, UniProt Q9X0T1)", "details": "co-crystal, 0.1 M sodium citrate; substrate site S1-S4"}, "tmMBP2": {"target": "tmMBP2 (Thermotoga maritima, UniProt Q9S5Y1)", "details": "co-crystal, bis-tris pH 5.5; substrate site S1-S4"}}, "data": [{"compound": "OC[C@H]1O[C@H](O[C@H]2[C@H](O)[C@@H](O)C(O)O[C@@H]2CO)[C@H](O)[C@@H](O)[C@@H]1O", "note": "(stereo partly drawn) [maltose]", "values": [{"measurement": "X-ray crystal structure of complex, 2.15 A; SAXS", "setting": "tmMBP3", "value": "tmMBP3-maltose complex (6DTQ)"}]}, {"compound": "OC[C@H]1O[C@H](O[C@H]2[C@H](O)[C@@H](O)[C@@H](O[C@H]3[C@H](O)[C@@H](O)[C@@H](O[C@H]4[C@H](O)[C@@H](O)C(O)O[C@@H]4CO)O[C@@H]3CO)O[C@@H]2CO)[C@H](O)[C@@H](O)[C@@H]1O", "note": "(stereo partly drawn) [maltotetraose]", "values": [{"measurement": "X-ray crystal structure of complex, 1.50 A; SAXS", "setting": "tmMBP1", "value": "tmMBP1-maltotetraose complex (6DTU)"}, {"measurement": "X-ray crystal structure of complex, 1.50 A; SAXS", "setting": "tmMBP2", "value": "tmMBP2-maltotetraose complex (6DTS)"}]}]}
